In BindingDB's records for doi:10.1021/jm020911e (Universit&#224, 2002):

Biological target: Adenosine receptor A3 (Bos taurus)
Test: Displacement of [125I]AB-MECA from Adenosine A3 receptor in bovine cortical membranes in the presence of 20 nM DPCPX.

`CCC(=O)CNc1nc(-c2ccccc2)nc2nc(C)cn12` [1-(7-Methyl-2-phenyl-imidazo[1,2-a][1,3,5]triazin-4-ylamino)-butan-2-one] and `CC(=O)CNc1nc(-c2ccccc2)nc2nc(C)cn12` [1-(7-Methyl-2-phenyl-imidazo[1,2-a][1,3,5]triazin-4-ylamino)-propan-2-one] cannot be ordered by Ki: over 10000 nM for the first, over 10000 nM for the second.

Compared with `O=C(Nc1nc(-c2ccccc2)nc2nc(-c3ccccc3)cn12)C1CCCC1` [Cyclopentanecarboxylic acid (2,7-diphenyl-imidazo[1,2-a][1,3,5]triazin-4-yl)-amide], `CC(=O)Nc1nc(-c2ccccc2)nc2nc(-c3ccccc3)cn12` [N-(2,7-Diphenyl-imidazo[1,2-a][1,3,5]triazin-4-yl)-acetamide] is 31-fold lower in Ki: 1240 nM for the first, 40 nM for the second. The second binds more tightly here.

Compared with `CC(C)c1cn2c(NC(=O)C3CCCC3)nc(-c3ccccc3)nc2n1` [Cyclopentanecarboxylic acid (7-isopropyl-2-phenyl-imidazo[1,2-a][1,3,5]triazin-4-yl)-amide], `Cc1cn2c(NC3CCCC3)nc(-c3ccccc3)nc2n1` [Cyclopentyl-(7-methyl-2-phenyl-imidazo[1,2-a][1,3,5]triazin-4-yl)-amine] is 130-fold higher in Ki: 17.4 nM for the first, 2250 nM for the second.

`CC(=O)Nc1nc(-c2ccccc2)nc2nc(C)cn12` [N-(7-Methyl-2-phenyl-imidazo[1,2-a][1,3,5]triazin-4-yl)-acetamide] was tested, and the Ki was 231 nM.
